Reference: US10844049B2, “GLP-1R agonists and uses thereof” (QILU REGOR THERAPEUTICS INC., priority 2018, dated 2020)

How the values were obtained:
[1] = biological target: T1, GLP1R (Homo sapiens, UniProt P43220); assay: β-Arrestin-mediated GLP1R internalization assay (PathHunter engineered U2OS cells); type: cell-based; parameters: host or cells: PathHunter engineered U2OS cells; conditions: averaged Bmax, percentage of control GLP-1 (7-37), highest concentration tested
Text: A similar assay can also be used to assess the extent of signal attenuation due to GLP-1R internalization (the β-Arrestin Internalization Assay). In this assay, activated GLP1R Internalization cells were engineered to co-express an untagged GLP1R, Enzyme Acceptor (EA) tagged β-Arrestin, and a ProLink™ (PK) tag localized to the endosomes. Activation of the GLP1R induces β-Arrestin recruitment, which leads to internalization of the Receptor/Arrestin-EA complex in PK-tagged endosomes. This forces complementation of the two β-galactosidase enzyme fragments (EA and PK) to form a functional enzyme that hydrolyzes substrate to generate a chemiluminescent signal. These cells have been modified to prevent long term propagation and expansion using a proprietary compound that has no apparent effect on assay performance.
Specifically, PathHunter engineered U2OS cells from the assay kit (Cat #93-0724E3CP0L) were plated at a density of 2000 cells/20 μL/well in a 384-well white/clear bottom plates (Greiner Cat #781098). Frozen cells were quickly thawed and 10 mL of cell plating medium (provided by the kit) was added to thawed cells. Cells were stored in a 37° C. incubator and kept for approximately 48 hours until ready for the assay.
(§1) Reference and test compounds were dissolved in 100% DMSO. 5× concentration of an agonist was prepared in serum free DMEM (Thermo Cat #11965). 5 μL of this solution was added to 20 μL cell medium in assay plate for a final top concentration of 10 μM. Plates were incubated at 37° C. for 180 min.
(§2) Following 180 min incubation, detection reagents were made up by combining 1 part Galacton Star Substrate with 5 parts Emerald II™ Solution, and 19 parts of PathHunter Cell Assay Buffer, respectively. 12.5 μL detection reagent was added to each well. The plates were then incubated at room temperature for 60 min. Plates were then read on Envision for 0.1 sec/well.
(§3) EC50 determinations were made from agonist dose-response curves analyzed with a curve fitting program using a 4-parameter logistic dose response equation.

[2] = biological target: T1, GLP1R; assay: GLP-1R/β-Arrestin recruitment assay (PathHunter eXpress GLP1R CHO-K1 β-Arrestin GPCR Assay); type: cell-based; parameters: host or cells: PathHunter CHO-K1 GLP1R β-Arrestin cells; conditions: averaged Bmax, percentage of control GLP-1 (7-37), highest concentration tested
Text: GLP-1R agonist activity with respect to β-arrestin recruitment can be determined with a cell-based functional assay using PathHuntcr eXpress GLP1R CHO-K1 β-Arrestin GPCR Assay kit (DiscovcrX Cat #93-0300E2CP0M).
The PathHunter β-Arrestin GPCR assay technology utilizes a β-galactosidase (β-gal) enzyme that is split into two fragments, the smaller Enzyme Donor (ED) and the larger Enzyme Acceptor (EA). These fragments can be fused to two proteins that may interact with each other, such as EA-β-Arrestin and ED-GLP-1R. The fusions can be stably expressed in a test cell line, such as the PathHunter CHO-K1 GLP1R β-Arrestin cells described below.
Independently, these fragment fusions have no β-gal activity; however, in solution or in a living cell, they can be brought together and complement to form an active β-gal enzyme due to the interaction between the fused proteins, thus generating a chemiluminescent signal in the presence of a suitable β-gal substrate.
In this experiment, PathHunter CHO-K1 GLP1R β-Arrestin cells from the assay kit were plated at a density of 1000 or 2000 cells/20 μl/well in a 384-well white/clear bottom plates (Greiner Cat #781098). Frozen cells were quickly thawed and 10 mL of cell plating medium (provided by the kit) was added to thawed cells. Cells were stored in a 37° C. incubator under 5% CO2 and kept for approximately 48 hours until ready to ran the assay.
as §1, with “Plates were then incubated at” for “Plates were incubated at”, “37° C. under 5% CO2 for 90” for “37° C. for 180”, “CO2 for 90 min.” for “C. for 180 min.”
as §2, with “90” for “180”, “temperature in dark” for “temperature”
as §3
Cells were plated at a density of 1000 or 2000 cells/20 μL/well. Frozen cells were quickly thawed and added to 10 mL of cell plating medium. Cells were stored in a 37° C. incubator under 5% CO2 and left for approximately 48 hours until ready to run the assay.
• 1) Reference agonist compound GLP1 (7-37): dissolved with DMSO to make 1 mM stock solutions, aliquoted and stored at −80° C. • 2) Test compounds (such as the compounds of the invention) came solubilized in 100% DMSO.
Prepare 10× concentration of an agonist in serum free DMEM, and add all solutions into the compound plate. 2.5 μL of this solution was added to 20 μL cell medium in assay plate for a final top concentration of 10 μM. Plates were incubated at 37° C. under 5% CO2 for 30 min. An additional 2.5 μL of Buffer was added to the entire plate for agonist mode and incubated at 37° C. for another 90 min.
Following 90 min incubation, detection reagents were made up as described. 12.5 μL was added to all wells. The plates were then incubated at room temperature in dark for 60 min. Plates were then read on Envision for 0.1 sec/well.
Data analysis: GraphPad Prism 6 was used for establishment of progression curve. EC50S or IC50s were determined by 4-parameter logistic dose response equation.

T1 sequence (P43220 24-463): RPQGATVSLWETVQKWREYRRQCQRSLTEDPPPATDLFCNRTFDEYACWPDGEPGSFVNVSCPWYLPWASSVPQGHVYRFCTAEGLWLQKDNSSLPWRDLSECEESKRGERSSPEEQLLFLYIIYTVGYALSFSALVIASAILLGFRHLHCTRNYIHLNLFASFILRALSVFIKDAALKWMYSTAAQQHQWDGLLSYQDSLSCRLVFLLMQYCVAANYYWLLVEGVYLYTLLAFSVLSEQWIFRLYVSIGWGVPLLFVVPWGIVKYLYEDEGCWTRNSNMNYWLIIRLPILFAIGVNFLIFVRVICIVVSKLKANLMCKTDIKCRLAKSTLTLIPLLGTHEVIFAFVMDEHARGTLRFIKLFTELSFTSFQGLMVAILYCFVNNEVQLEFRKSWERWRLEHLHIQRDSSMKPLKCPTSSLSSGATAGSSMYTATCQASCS

Compound	Bmax (POC) [1] [POC]	Bmax (POC) [2] [POC]
O=C(O)c1ccc2nc(CN3CC=C(c4cccc(OCc5ccc(Cl)cc5F)c4)CC3)n(C[C@@H]3CCO3)c2c1F [Compound 237, (S)-2-((4-(3-((4-chloro-2-fluorobenzyl)oxy)phenyl)-3,6-dihydropyridin-1(2H)-yl)methyl)-7-fluoro-1-(oxetan-2-ylmethyl)-1H-benzo[d]imidazole-6-carboxylic acid]	17.7 ± 1.20	37.9 ± 4.66
O=C(O)c1ccc2nc(CN3CC=C(c4ccc(F)c(OCc5ccc(Cl)cc5F)c4)CC3)n(C[C@@H]3CCO3)c2c1F [Compound 238, (S)-2-((4-(3-((4-chloro-2-fluorobenzyl)oxy)-4-fluorophenyl)-3,6-dihydropyridin-1(2H)-yl)methyl)-7-fluoro-1-(oxetan-2-ylmethyl)-1H-benzo[d]imidazole-6-carboxylic acid]	52.8 ± 1.14	55.8 ± 14.1
O=C(O)c1ccc2nc(CN3CCC(c4cccc(OCc5ccc(Cl)cc5F)c4)CC3)n(C[C@@H]3CCO3)c2c1 [Compound 239, (S)-2-((4-(3-((4-chloro-2-fluorobenzyl)oxy)phenyl)piperidin-1-yl)methyl)-1-(oxetan-2-ylmethyl)-1H-benzo[d]imidazole-6-carboxylic acid]	14.1 ± 1.57	25.6 ± 5.31

More lines, now with the values ahead:

Bmax (POC) [1] [POC]	Bmax (POC) [2] [POC]	Compound
15.4	22.5 ± 4.32	O=C(O)c1ccc2nc(CN3CC=C(c4cccc(OCc5ccc(-c6cccnc6)cc5)n4)CC3)n(C[C@@H]3CCO3)c2c1 [Compound 242, (S)-1-(oxetan-2-ylmethyl)-2-((6-((4-(pyridin-3-yl)benzyl)oxy)-3′,6′-dihydro-[2,4′-bipyridin]-1′(2′H)-yl)methyl)-1H-benzo[d]imidazole-6-carboxylic add]
27.7	38.0 ± 6.42	O=C(O)c1ccc2nc(CN3CC=C(c4cccc(OCc5ccc(-n6ccnc6)cc5)n4)CC3)n(C[C@@H]3CCO3)c2n1 [Compound 245, (S)-2-((4-(6-(4-(1H-imidazol-1-yl)benzyloxy)pyridin-2-yl)-5,6-dihydropyridin-1(2H)-yl)methyl)-3-(oxetan-2-ylmethyl)-3H-imidazo[4,5-b]pyridine-5-carboxylic add]
